Measurements reported in article PMC6200933, “Identification of a Kdn biosynthesis pathway in the haptophyte Prymnesium parvum suggests widespread sialic acid biosynthesis among microalgae” (The Journal of Biological Chemistry, 2018).
Like-named read-outs stand apart in the source and are kept apart here. Values belong to the compound of their own block, whether it stands above or below them.

Columns and labels:
[1] = molecular target: T1, B. thetaiotaomicron VPI-5482 Kdn-9-P phosphatase (Bacteroides thetaiotaomicron, UniProt Q8A712); assay: […] NMR coupled assay, Kdn-9-P generated in situ by P. parvum Kdn-9-P synthetase; type: biochemical; conditions: coupled with Kdn-9-P synthetase, 10 mM PEP, 8 mM Man-6-P, 2 mM MgCl2, 50 mM HEPES pD 7.5, 1 h
T1 construct: gene BT_1713
T1 sequence (Q8A712 whole entry, change not shown): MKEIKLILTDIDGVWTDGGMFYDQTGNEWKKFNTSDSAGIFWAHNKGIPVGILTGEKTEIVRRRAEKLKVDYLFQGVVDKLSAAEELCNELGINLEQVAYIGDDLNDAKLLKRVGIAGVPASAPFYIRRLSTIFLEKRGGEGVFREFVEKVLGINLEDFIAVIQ

[2] = tested on: T2, Kdn-9-P synthetase (CAMPEP_0191217894); assay: BioMol Green colorimetric phosphate-release assay, Michaelis-Menten; type: biochemical, Prymnesium parvum; conditions: 50 mM HEPES pH 7.5, 2 mM MgCl2, 25 °C
T2 construct: no truncation stated

SMILES: O=C(O)C1(O)C[C@H](O)[C@@H](O)[C@H]([C@H](O)[C@H](O)COP(=O)(O)O)O1 (stereo partly drawn) [Kdn-9-P]
31P NMR coupled assay, Kdn-9-P generated in situ by P. parvum Kdn-9-P synthetase [1]: is accepted by B. thetaiotaomicron VPI-5482 Kdn-9-P phosphatase

Km ([2]; 100 μM PEP, read-out: (Man-6-P)Km): 63.6 ± 10.5 µM
SMILES: O=P(O)(O)OC[C@H]1OC(O)[C@@H](O)[C@@H](O)[C@@H]1O (stereo partly drawn) [Man-6-P]

Km ([2]; 100 μM Man-6-P, read-out: (PEP)Km): 18.3 ± 1.8 µM
SMILES: C=C(OP(=O)(O)O)C(=O)O [PEP]
